Values of other authors in US6106863A, “Sustained-release metal valproate tablets” (priority 1996, dated 2000).

Assays:
[1] = in vivo

CCCC(CCC)C(=O)[O-].[Na+] [Sodium valproate]
biological half-life (in words) [1]: short biological half-life
effective blood concentration [1]: 50 to 100 µg/mL
water solubility (in words): water-soluble
